The record followed here is patent US6610846B1, “Heteroaromatic glucokinase activators” (Hoffman-La Roche Inc., priority 1999, dated 2003).

Each structure is given as a SMILES string.

For one data set, the system named is C57BL/6J mice. Nature of the data set: Glucokinase activator in vivo screen (blood glucose after oral dosing). As to conditions: administered orally, 50 mg/kg, C57BL/6J mice fasted two hours; decrease in blood glucose compared to vehicle over six hours (Example B). As to the method: Glucokinase Activator In Vivo Screen Protocol
C57BL/6J mice are orally dosed via gavage with Glucokinase (GK) activator at 50 mg/kg body weight following a two hour fasting period. Blood glucose determinations are made five times during the six hour post-dose study period. Mice (n=6) are weighed and fasted for a two hour period prior to oral treatment.
`CS(=O)(=O)c1ccc(C(CC2CCCC2)C(=O)Nc2nccs2)cc1` (stereo not drawn) [Example 3(A), 3-Cyclopentyl-2-(4-methanesulfonyl-phenyl)-N-thiazol-2-yl-propionamide]: the “glucokinase activator in vivo activity” value is “excellent glucokinase activator in vivo activity”.

In the case of `CS(=O)(=O)c1ccc(C(CC2CCCC2)C(=O)Nc2nccs2)cc1Cl` (stereo not drawn) [Example 12, 2-[3-Chloro-4-methanesulfonyl-phenyl]-3-cyclopentyl-N-thiazol-2-yl-propionamide], the “glucokinase activator in vivo activity” value was “excellent glucokinase activator in vivo activity”.

Take `CS(=O)(=O)c1ccc([C@@H](CC2CCCC2)C(=O)Nc2nccs2)cc1` [Example 13, (2R)-3-Cyclopentyl-2-(4-methanesulfonylphenyl)-N-thiazol-2-yl-propionamide]: the “glucokinase activator in vivo activity” value is on record as “excellent glucokinase activator in vivo activity”.

In the case of `Cc1ccc(NC(=O)C(CC2CCCC2)c2ccc(S(=O)(=O)C(F)(F)F)cc2)nc1` (stereo not drawn) [Example 43(B)(b), 3-Cyclopentyl-N-(5-methyl-pyridin-2-yl)-2-(4-trifluoromethanesulfonyl-phenyl)-propionamide], the “glucokinase activator in vivo activity” value is recorded as “excellent glucokinase activator in vivo activity”.

As to `COC(=O)c1ccc(NC(=O)C(CC2CCCC2)c2ccc(S(=O)(=O)C(F)(F)F)cc2)nc1` (stereo not drawn) [Example 43(B)(c), 6-[3-Cyclopentyl-2-(4-trifluoromethanesulfonyl-phenyl)-propionylamino]-nicotinic acid methyl ester], the “glucokinase activator in vivo activity” value is “excellent glucokinase activator in vivo activity”.

Regarding `COC(=O)c1ccc(NC(=O)[C@H](CC2CCCC2)c2ccc(Cl)c(Cl)c2)nc1` [Example 45, 6-[3-Cyclopentyl-2(R)-(3,4-dichloro-phenyl)-propionylamino]-nicotinic acid methyl ester], the “glucokinase activator in vivo activity” value is given as “excellent glucokinase activator in vivo activity”.

Take `O=C(Nc1ccc(Cl)cn1)[C@H](CC1CCCC1)c1ccc(Cl)c(Cl)c1` [Example 54(A), N-(5-Chloro-pyridin-2-yl)-3-cyclopentyl-2(R)-(3,4-dichloro-phenyl)-propionamide]: the “glucokinase activator in vivo activity” value was “excellent glucokinase activator in vivo activity”.

As to `O=C(Nc1ccccn1)[C@H](CC1CCCC1)c1ccc(Cl)c(Cl)c1` [Example 54(B)(a), 3-Cyclopentyl-2(R)-(3,4-dichloro-phenyl)-N-pyridin-2-yl-propionamide], the “glucokinase activator in vivo activity” value is reported as “excellent glucokinase activator in vivo activity”.

Take `CS(=O)(=O)c1ccc(C(CC2CCCC2)C(=O)Nc2ccccn2)cc1Cl` (stereo not drawn) [Example 92, 2-(3-Chloro-4-methanesulfonyl-phenyl)-3-cyclopentyl-N-pyridin-2-yl-propionamide]: the “glucokinase activator in vivo activity” value is listed as “excellent glucokinase activator in vivo activity”.

`CS(=O)(=O)c1ccc(C(CC2CCCC2)C(=O)Nc2ccc(Br)cn2)cc1Cl` (stereo not drawn) [Example 93, N-(5-Bromo-pyridin-2-yl)-2-(3-chloro-4-methanesulfonyl-phenyl)-3-cyclopentyl-propionamide]: the “glucokinase activator in vivo activity” value was “excellent glucokinase activator in vivo activity”.

System in another data set: not given
Experiment: not given
Settings: not given
With `O=C(O)c1ccc(NC(=O)C(CC2CCCC2)c2cccc(Cl)c2)nc1` (stereo not drawn) [Example 120, 6-[2-(3-Chloro-phenyl)-3-cyclopentyl-propionylamino]-nicotinic acid], the melting point lay in the range of 251 to 255 °C.

As for `CSc1ccc([C@@H](CC2CCCC2)C(=O)Nc2cnccn2)cc1` [Example 126, 3-Cyclopentyl-2(R)-(4-methylsulfanyl-phenyl)-N-pyrazin-2-yl-propionamide], the melting point lay in the range of 128 to 130 °C.

`CS(=O)(=O)c1ccc([C@@H](CC2CCCC2)C(=O)Nc2cnccn2)cc1` [Example 127, 3-Cyclopentyl-2(R)-(4-methylsulfonyl-phenyl)-N-pyrazin-2-yl-propionamide] returned a melting point of 75 to 80 °C.

In the case of `CS(=O)(=O)c1ccc(C(CC2CCCC2)C(=O)Nc2ncc(Br)s2)cc1` (stereo not drawn) [Example 132, N-(5-Bromo-thiazol-2-yl)-3-cyclopentyl-2-(4-methanesulfonyl-phenyl)-propionamide], the melting point was 73 to 75 °C.

As for `CS(=O)(=O)c1ccc(C(CC2CCCC2)C(=O)Nc2ncc(C(N)=O)s2)cc1` (stereo not drawn) [Example 134, 2-[3-Cyclopentyl-2-(4-methanesulfonyl-phenyl)-propionylamino]-thiazole-5-carboxylic acid amide], the melting point is 155 to 160 °C.

`CS(=O)(=O)c1ccc(C(CC2CCCC2)C(=O)Nc2ccccn2)cc1F` (stereo not drawn) [Example 136, 3-Cyclopentyl-2-(3-fluoro-4-methanesulfonyl-phenyl)-N-pyridin-2-yl-propionamide]: the melting point lay in the range of 76 to 79 °C.

For `CS(=O)(=O)c1ccc([C@@H](CC2CCCC2)C(=O)Nc2cc[nH]c(=O)n2)cc1Cl` [Example 145, 2(R)-(3-Chloro-4-methanesulfonyl-phenyl)-3-cyclopentyl-N-(2-oxo-1,2-dihydro-pyrimidin-4-yl)-propionamide], the melting point is above 200 °C.

The compound `CS(=O)(=O)c1ccc(C(CC2CCCC2)C(=O)Nc2ccncn2)cc1Br` (stereo not drawn) [Example 148(A), 2-(3-Bromo-4-methanesulfonyl-phenyl)-3-cyclopentyl-N-pyrimidin-4-yl-propionamide] had a melting point of 75 to 80 °C.

On to `CS(=O)(=O)c1ccc(C(CC2CCCC2)C(=O)Nc2ncc[nH]2)cc1Br` (stereo not drawn) [Example 150, 2-(3-Bromo-4-methanesulfonyl-phenyl)-3-cyclopentyl-N-(1 H-imidazol-2-yl)-propionamide], for which the melting point is > 210 °C (dec.).

In turn, `CS(=O)(=O)c1ccc(C(CC2CCCC2)C(=O)Nc2ccncn2)cc1C#N` (stereo not drawn) [Example 151, 2-(3-Cyano-4-methanesulfonyl-phenyl)-3-cyclopentyl-N-pyrimidin-4-yl-propionamide] yielded a melting point of 79 to 84 °C.

As for `Cc1nccc(NC(=O)C(CC2CCCC2)c2ccc(S(C)(=O)=O)c(C#N)c2)n1` (stereo not drawn) [Example 152, 2-(3-Cyano-4-methanesulfonyl-phenyl)-3-cyclopentyl-N-(2-methyl-pyrimidin-4-yl)-propionamide], the melting point was 89 to 94 °C.

`CS(=O)(=O)c1ccc(C(CC2CCCC2)C(=O)Nc2cnccn2)cc1C#N` (stereo not drawn) [Example 153, 2-(3-Cyano-4-methanesulfonyl-phenyl)-3-cyclopentyl-N-pyrazin-2-yl-propionamide] showed a melting point of 88 to 93 °C.

On to `CSc1ccc(C(CC2CCCC2)C(=O)Nc2ccc([N+](=O)[O-])cn2)cc1C(F)(F)F` (stereo not drawn) [Example 154(A), 3-Cyclopentyl-2-(4-methylsulfanyl-3-trifluoromethyl-phenyl)-N-(5-nitro-pyridin-2-yl)-propionamide], for which the melting point is 109 to 110 °C.

`CS(=O)(=O)c1ccc(C(CC2CCCC2)C(=O)Nc2ccnc(=O)[nH]2)cc1C(F)(F)F` (stereo not drawn) [Example 155(A), 3-Cyclopentyl-2-(4-methanesulfonyl-3-trifluoromethyl-phenyl)-N-(2-oxo-2,3-dihydro-pyrimidin-4-yl)-propionamide] returned a melting point of 236 to 238 °C.

With `CS(=O)(=O)c1ccc(C(CC2CCCC2)C(=O)Nc2ccc(Br)cn2)cc1C(F)(F)F` (stereo not drawn) [Example 156(A), N-(5-Bromo-pyridin-2-yl)-3-cyclopentyl-2-(4-methanesulfonyl-3-trifluoromethyl-phenyl)-propionamide], the melting point lay within 81 to 85 °C.

As to `CS(=O)(=O)c1ccc(C(CC2CCCC2)C(=O)Nc2ccncn2)cc1[N+](=O)[O-]` (stereo not drawn) [Example 158, 3-Cyclopentyl-2-(4-methanesulfonyl-3-nitro-phenyl)-N-pyrimidin-4-yl-propionamide], the melting point fell in the range of 91 to 95 °C.

For the compound `Cc1nccc(NC(=O)C(CC2CCCC2)c2ccc(S(C)(=O)=O)c([N+](=O)[O-])c2)n1` (stereo not drawn) [Example 159, 3-Cyclopentyl-2-(4-methanesulfonyl-3-nitro-phenyl)-N-(2-methyl-pyrimidin-4-yl)-propionamide], the melting point was 96 to 99 °C.

In the case of `CS(=O)(=O)c1ccc(C(CC2CCCC2)C(=O)Nc2cc[nH]c(=O)n2)cc1[N+](=O)[O-]` (stereo not drawn) [Example 160, 3-Cyclopentyl-2-(4-methanesulfonyl-3-nitro-phenyl)-N-(2-oxo-1,2-dihydro-pyrimidin-4-yl)-propionamide], the melting point is 256 to 258 °C (dec.).

In turn, `CS(=O)(=O)c1ccc(C(CC2CCCC2)C(=O)Nc2cnccn2)cc1[N+](=O)[O-]` (stereo not drawn) [Example 161, 3-Cyclopentyl-2-(4-methanesulfonyl-3-nitro-phenyl)-N-pyrazin-2-yl-propionamide] returned a melting point of 104 to 108 °C.

`CS(=O)(=O)c1ccc(C(CC2CCCC2)C(=O)Nc2ncc[nH]2)cc1[N+](=O)[O-]` (stereo not drawn) [Example 162, 3-Cyclopentyl-N-(1 H-imidazol-2-yl)-2-(4-methanesulfonyl-3-nitro-phenyl)-propionamide] showed a melting point of 243 to 244 °C.

With `O=C(Nc1ccc(Br)cn1)C(CC1CCCC1)c1ccc(Cl)c([N+](=O)[O-])c1` (stereo not drawn) [Example 164, N-(5-Bromo-pyridin-2-yl)-2-(4-chloro-3-nitro-phenyl)-3-cyclopentyl-propionamide], the melting point is 128 to 130 °C.

With `O=C(Nc1ccncn1)C(CC1CCCC1)c1cccc(C(F)(F)F)c1` (stereo not drawn) [Example 165(A), 3-Cyclopentyl-N-pyrimidin-4-yl-2-(3-trifluoromethyl-phenyl)-propionamide], the melting point lay in the range of 113 to 115 °C.

On to `O=C(Nc1ccc([N+](=O)[O-])cn1)C(CC1CCCC1)c1ccc(F)c(C(F)(F)F)c1` (stereo not drawn) [Example 167(A), 3-Cyclopentyl-2-(4-fluoro-3-trifluoromethyl-phenyl)-N-(5-nitro-pyridin-2-yl)-propionamide], for which the melting point was in the range of 121 to 122 °C.

Broadly, the melting point is the temperature of the solid-liquid transition.
